# Reference: patent US7846655B2, “Compositions and methods for detecting a non plus-stranded RNA virus” (priority 2003, dated 2010)
# Where two headings read alike, the source gives them in different places.
# Legend:
# influenza A = format: cell-based; settings: FluA, 24 hours, control 189 ± 012
# influenza B = format: cell-based; settings: FluB, 24 hours, control 455 ± 022
# adenovirus = format: cell-based; settings: Adeno, 24 hours, control 863 ± 100
# RSV = format: cell-based; settings: 24 hours, control 116 ± 012
# parainfluenza 1 = format: cell-based; settings: Para1, 24 hours, control 245 ± 018
# parainfluenza 2 = format: cell-based; settings: Para2, 24 hours, control 243 ± 012
# parainfluenza 3 = format: cell-based; settings: Para3, 24 hours, control 142 ± 014
# human coronavirus 229E = assay: Replication of human coronavirus 229E (inventors' data, E64); format: cell-based; settings: no conditions given
# SARS-coronavirus = settings: Yount et al. PNAS 100:12995-13000 (2003); cited from earlier work
# [1] = Glycycrrhizin 0.152 micrograms/ml
# [2] = Glycycrrhizin 1.216 micrograms/ml
# [3] = Glycycrrhizin 6.08 micrograms/ml
structure (smiles),measurement,setting,value
"CC(C)C[C@H](NC(=O)[C@H]1O[C@@H]1C(=O)O)C(=O)NCCCCN=C(N)N (relative stereo) [E64, trans-Epoxysuccinyl-L-leucylamido-(4-guanidino)butane]",Number of Infected Foci In R-Mix Cell Cultures,influenza A; E64 0.5 micrograms/ml,174
same,Number of Infected Foci In R-Mix Cell Cultures,influenza A; E64 5 micrograms/ml,179
same,Number of Infected Foci In R-Mix Cell Cultures,influenza A; E64 10 micrograms/ml,176
same,Number of Infected Foci In R-Mix Cell Cultures,influenza B; E64 0.5 micrograms/ml,398
same,Number of Infected Foci In R-Mix Cell Cultures,influenza B; E64 5 micrograms/ml,328
same,Number of Infected Foci In R-Mix Cell Cultures,influenza B; E64 10 micrograms/ml,323
same,Number of Infected Foci In R-Mix Cell Cultures,adenovirus; E64 0.5 micrograms/ml,904
same,Number of Infected Foci In R-Mix Cell Cultures,adenovirus; E64 5 micrograms/ml,868
same,Number of Infected Foci In R-Mix Cell Cultures,adenovirus; E64 10 micrograms/ml,865
same,Number of Infected Foci In R-Mix Cell Cultures,RSV; E64 0.5 micrograms/ml,107
same,Number of Infected Foci In R-Mix Cell Cultures,RSV; E64 5 micrograms/ml,115
same,Number of Infected Foci In R-Mix Cell Cultures,RSV; E64 10 micrograms/ml,103
same,Number of Infected Foci In R-Mix Cell Cultures,parainfluenza 1; E64 0.5 micrograms/ml,251
same,Number of Infected Foci In R-Mix Cell Cultures,parainfluenza 1; E64 5 micrograms/ml,243
same,Number of Infected Foci In R-Mix Cell Cultures,parainfluenza 1; E64 10 micrograms/ml,207
same,Number of Infected Foci In R-Mix Cell Cultures,parainfluenza 2; E64 0.5 micrograms/ml,223
same,Number of Infected Foci In R-Mix Cell Cultures,parainfluenza 2; E64 5 micrograms/ml,221
same,Number of Infected Foci In R-Mix Cell Cultures,parainfluenza 2; E64 10 micrograms/ml,205
same,Number of Infected Foci In R-Mix Cell Cultures,parainfluenza 3; E64 0.5 micrograms/ml,127
same,Number of Infected Foci In R-Mix Cell Cultures,parainfluenza 3; E64 5 micrograms/ml,99
same,replication of human coronavirus 229E,human coronavirus 229E,inhibition in replication
"CCOC(=O)[C@H]1O[C@@H]1C(=O)N[C@@H](CC(C)C)C(=O)NCCC(C)C [(2S,3S)transepoxysuccinyl-L-leucylamido-3-methylbutane ethyl ester]",replication of SARS-coronavirus,SARS-coronavirus,inhibition in replication
CCCCC[C@H](CC(=O)NO)C(=O)N[C@H](C(=O)N1CCC[C@H]1CO)C(C)C [Actinonin],Number of Infected Foci In R-Mix Cell Cultures,influenza A; Actinonin 10 micrograms/ml,171
same,Number of Infected Foci In R-Mix Cell Cultures,influenza A; Actinonin 20 micrograms/ml,122
same,Number of Infected Foci In R-Mix Cell Cultures,influenza A; Actinonin 40 micrograms/ml,118
same,Number of Infected Foci In R-Mix Cell Cultures,influenza B; Actinonin 10 micrograms/ml,317
same,Number of Infected Foci In R-Mix Cell Cultures,influenza B; Actinonin 20 micrograms/ml,260
same,Number of Infected Foci In R-Mix Cell Cultures,influenza B; Actinonin 40 micrograms/ml,190
same,Number of Infected Foci In R-Mix Cell Cultures,adenovirus; Actinonin 10 micrograms/ml,781
same,Number of Infected Foci In R-Mix Cell Cultures,adenovirus; Actinonin 20 micrograms/ml,383
same,Number of Infected Foci In R-Mix Cell Cultures,adenovirus; Actinonin 40 micrograms/ml,147
same,Number of Infected Foci In R-Mix Cell Cultures,RSV; Actinonin 10 micrograms/ml,103
same,Number of Infected Foci In R-Mix Cell Cultures,RSV; Actinonin 20 micrograms/ml,64
same,Number of Infected Foci In R-Mix Cell Cultures,RSV; Actinonin 40 micrograms/ml,41
same,Number of Infected Foci In R-Mix Cell Cultures,parainfluenza 1; Actinonin 10 micrograms/ml,222
same,Number of Infected Foci In R-Mix Cell Cultures,parainfluenza 1; Actinonin 20 micrograms/ml,191
same,Number of Infected Foci In R-Mix Cell Cultures,parainfluenza 1; Actinonin 40 micrograms/ml,160
same,Number of Infected Foci In R-Mix Cell Cultures,parainfluenza 2; Actinonin 10 micrograms/ml,220
same,Number of Infected Foci In R-Mix Cell Cultures,parainfluenza 2; Actinonin 20 micrograms/ml,196
same,Number of Infected Foci In R-Mix Cell Cultures,parainfluenza 2; Actinonin 40 micrograms/ml,151
same,Number of Infected Foci In R-Mix Cell Cultures,parainfluenza 3; Actinonin 10 micrograms/ml,115
same,Number of Infected Foci In R-Mix Cell Cultures,parainfluenza 3; Actinonin 20 micrograms/ml,104
same,Number of Infected Foci In R-Mix Cell Cultures,parainfluenza 3; Actinonin 40 micrograms/ml,75
"CC1(C)[C@@H](O[C@H]2O[C@H](C(=O)O)[C@@H](O)[C@H](O)[C@H]2O[C@@H]2O[C@H](C(=O)O)[C@@H](O)[C@H](O)[C@H]2O)CC[C@]2(C)[C@H]3C(=O)C=C4[C@@H]5C[C@@](C)(C(=O)O)CC[C@]5(C)CC[C@@]4(C)[C@]3(C)CC[C@@H]12 [Glycycrrhizin, Glycyrrhizin]",Number of Infected Foci In R-Mix Cell Cultures,influenza A; [1],218
same,Number of Infected Foci In R-Mix Cell Cultures,influenza A; [2],175
same,Number of Infected Foci In R-Mix Cell Cultures,influenza A; [3],163
same,Number of Infected Foci In R-Mix Cell Cultures,influenza B; [1],426
same,Number of Infected Foci In R-Mix Cell Cultures,influenza B; [2],402
same,Number of Infected Foci In R-Mix Cell Cultures,influenza B; [3],273
same,Number of Infected Foci In R-Mix Cell Cultures,adenovirus; [1],766
same,Number of Infected Foci In R-Mix Cell Cultures,adenovirus; [2],938
same,Number of Infected Foci In R-Mix Cell Cultures,adenovirus; [3],1061
same,Number of Infected Foci In R-Mix Cell Cultures,RSV; [1],130
same,Number of Infected Foci In R-Mix Cell Cultures,RSV; [2],103
same,Number of Infected Foci In R-Mix Cell Cultures,RSV; [3],53
same,Number of Infected Foci In R-Mix Cell Cultures,parainfluenza 1; [1],268
same,Number of Infected Foci In R-Mix Cell Cultures,parainfluenza 1; [2],233
same,Number of Infected Foci In R-Mix Cell Cultures,parainfluenza 1; [3],295
same,Number of Infected Foci In R-Mix Cell Cultures,parainfluenza 2; [1],265
same,Number of Infected Foci In R-Mix Cell Cultures,parainfluenza 2; [2],257
same,Number of Infected Foci In R-Mix Cell Cultures,parainfluenza 2; [3],281
same,Number of Infected Foci In R-Mix Cell Cultures,parainfluenza 3; [1],138
same,Number of Infected Foci In R-Mix Cell Cultures,parainfluenza 3; [2],149
same,Number of Infected Foci In R-Mix Cell Cultures,parainfluenza 3; [3],138
